Source: patent US11590139B2, “Substituted aminopurine compounds, compositions thereof, and methods of treatment therewith” (Signal Pharmaceuticals, LLC, priority 2014, dated 2023)

tested on: Lox-IMVI melanoma cell line; assay: Lox-IMVI anti-proliferative assay (growth inhibition, Cell Titer-Glo); assay type: cell-based, human; settings: Homo sapiens; IC50 activity level in the cell-based Lox-IMVI anti-proliferative assay; read-out: Activity
Outline: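 First, compound was dispensed as a 10-point 3-fold series (0.5 nM–10 μM, duplicate). Then cells in RPMI + 10% FBS were added and grown 72 h at 37 °C with 0.2% DMSO. Finally, ATP luminescence was read and IC50 calculated versus DMSO control.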

`NC(=O)[C@H]1CC[C@@H](n2c(Nc3c(F)cc(Cl)cc3Cl)nc3cnc(N[C@H]4CCC[C@@H](O)C4)nc32)CC1` [Example 376, (1R,4s)-4-(8-(2,4-dichloro-6-fluorophenylamino)-2-((1S,3R)-3-hydroxycyclohexylamino)-9H-purin-9-yl)cyclohexanecarboxamide] and `NC(=O)[C@H]1CC[C@@H](n2c(Nc3c(F)ccc(Cl)c3F)nc3cnc(N[C@H]4CCC[C@@H](O)C4)nc32)CC1` [Example 377, (1R,4s)-4-(8-(3-chloro-2,6-difluorophenylamino)-2-((1S,3R)-3-hydroxycyclohexylamino)-9H-purin-9-yl)cyclohexanecarboxamide] cannot be ordered by IC50: over 1 µM for the first, over 1 µM for the second.

First: N#Cc1cc(F)c(Nc2nc3cnc(NC4CCC(F)(F)CC4)nc3n2[C@H]2CC[C@@H](C(N)=O)CC2)c(Cl)c1 [Example 378, (1s,4s)-4-(8-(2-chloro-4-cyano-6-fluorophenylamino)-2-(4,4-difluorocyclohexylamino)-9H-purin-9-yl)cyclohexanecarboxamide]
Second: N#Cc1cc(F)c(Nc2nc3cnc(NC4CCC(F)(F)CC4)nc3n2[C@H]2CC[C@@H](C(N)=O)CC2)c(F)c1 [Example 396, (1s,4s)-4-(8-(4-cyano-2,6-difluorophenylamino)-2-(4,4-difluorocyclohexylamino)-9H-purin-9-yl)cyclohexanecarboxamide]
The IC50 of the first is lower: 0.25 to 0.5 µM for the first, 0.5 to 1 µM for the second.

`N#Cc1ccc(Nc2nc3cnc(NC4CCOCC4)nc3n2[C@H]2CC[C@@H](C(N)=O)CC2)c(F)c1F` [Example 379, (1s,4s)-4-(8-(4-cyano-2,3-difluorophenylamino)-2-(tetrahydro-2H-pyran-4-ylamino)-9H-purin-9-yl)cyclohexanecarboxamide] and `COc1ccc(Nc2nc3cnc(NC4CCOCC4)nc3n2[C@H]2CC[C@@H](C(N)=O)CC2)c(F)c1F` [Example 380, (1s,4s)-4-(8-(2,3-difluoro-4-methoxyphenylamino)-2-(tetrahydro-2H-pyran-4-ylamino)-9H-purin-9-yl)cyclohexanecarboxamide] cannot be ordered by IC50: over 1 µM for the first, over 1 µM for the second.

`CC1(C)CC[C@@H](Nc2ncc3nc(Nc4c(F)cc(F)cc4F)n([C@H]4CC[C@@H](C(N)=O)CC4)c3n2)C[C@H]1O` [Example 381, (1S,4s)-4-(2-((1R,3R)-3-hydroxy-4,4-dimethylcyclohexylamino)-8-(2,4,6-trifluorophenylamino)-9H-purin-9-yl)cyclohexanecarboxamide] and `CC1(C)CC[C@@H](Nc2ncc3nc(Nc4c(F)cc(F)cc4Cl)n([C@H]4CC[C@@H](C(N)=O)CC4)c3n2)C[C@H]1O` [Example 385, (1S,4s)-4-(8-(2-chloro-4,6-difluorophenylamino)-2-((1R,3R)-3-hydroxy-4,4-dimethylcyclohexylamino)-9H-purin-9-yl)cyclohexanecarboxamide] cannot be ordered by IC50: over 1 µM for the first, over 1 µM for the second.

`CC1(C)CC[C@@H](Nc2ncc3nc(Nc4c(F)cccc4F)n([C@H]4CC[C@@H](C(N)=O)CC4)c3n2)C[C@H]1O` [Example 382, (1S,4s)-4-(8-(2,6-difluorophenylamino)-2-((1R,3R)-3-hydroxy-4,4-dimethylcyclohexylamino)-9H-purin-9-yl)cyclohexanecarboxamide] and `CC1(C)CC[C@@H](Nc2ncc3nc(Nc4c(F)cccc4Cl)n([C@H]4CC[C@@H](C(N)=O)CC4)c3n2)C[C@H]1O` [Example 384, (1S,4s)-4-(8-(2-chloro-6-fluorophenylamino)-2-((1R,3R)-3-hydroxy-4,4-dimethylcyclohexylamino)-9H-purin-9-yl)cyclohexanecarboxamide] cannot be ordered by IC50: over 1 µM for the first, over 1 µM for the second.

`CC1(C)CC[C@@H](Nc2ncc3nc(Nc4c(Cl)cccc4Cl)n([C@H]4CC[C@@H](C(N)=O)CC4)c3n2)C[C@H]1O` [Example 383, (1S,4s)-4-(8-(2,6-dichlorophenylamino)-2-((1R,3R)-3-hydroxy-4,4-dimethylcyclohexylamino)-9H-purin-9-yl)cyclohexanecarboxamide] and `CC1(C)CC[C@@H](Nc2ncc3nc(Nc4c(Cl)cc(Cl)cc4Cl)n([C@H]4CC[C@@H](C(N)=O)CC4)c3n2)C[C@H]1O` [Example 387, (1S,4s)-4-(2-((1R,3R)-3-hydroxy-4,4-dimethylcyclohexylamino)-8-(2,4,6-tnchlorophenylarnino)-9H-purin-9-yl)cyclohexanecarboxamide] cannot be ordered by IC50: over 1 µM for the first, over 1 µM for the second.

`CC1(C)CC[C@@H](Nc2ncc3nc(Nc4c(F)cc(Cl)cc4F)n([C@H]4CC[C@@H](C(N)=O)CC4)c3n2)C[C@H]1O` [Example 386, (1S,4s)-4-(8-(4-chloro-2,6-difluorophenylamino)-2-((1R,3R)-3-hydroxy-4,4-dimethylcyclohexylamino)-9H-purin-9-yl)cyclohexanecarboxamide] and `CC1(C)CC[C@@H](Nc2ncc3nc(Nc4c(F)cc(Cl)cc4Cl)n([C@H]4CC[C@@H](C(N)=O)CC4)c3n2)C[C@H]1O` [Example 389, (1S,4s)-4-(8-(2,4-dichloro-6-fluorophenylamino)-2-((1R,3R)-3-hydroxy-4,4-dimethylcyclohexylamino)-9H-purin-9-yl)cyclohexanecarboxamide] cannot be ordered by IC50: over 1 µM for the first, over 1 µM for the second.

`CC1(C)CC[C@@H](Nc2ncc3nc(Nc4c(Cl)cc(F)cc4Cl)n([C@H]4CC[C@@H](C(N)=O)CC4)c3n2)C[C@H]1O` [Example 388, (1S,4s)-4-(8-(2,6-dichloro-4-fluorophenylamino)-2-((1R,3R)-3-hydroxy-4,4-dimethylcyclohexylamino)-9H-purin-9-yl)cyclohexanecarboxamide] and `CC1(C)CC[C@@H](Nc2ncc3nc(Nc4c(F)ccc(Cl)c4F)n([C@H]4CC[C@@H](C(N)=O)CC4)c3n2)C[C@H]1O` [Example 390, (1S,4s)-4-(8-(3-chloro-2,6-difluorophenylamino)-2-((1R,3R)-3-hydroxy-4,4-dimethylcyclohexylamino)-9H-purin-9-yl)cyclohexanecarboxamide] cannot be ordered by IC50: over 1 µM for the first, over 1 µM for the second.

Going from `C[C@@H]1CC[C@@H](Nc2ncc3nc(Nc4ccc(Cl)cc4Cl)n([C@H]4CC[C@@H](C(N)=O)CC4)c3n2)C[C@H]1O` [Example 391, (1S,4s)-4-(8-(2,4-dichlorophenylamino)-2-((1R,3R,4R)-3-hydroxy-4-methylcyclohexylamino)-9H-purin-9-yl)cyclohexanecarboxamide] to `N#Cc1cc(Cl)c(Nc2nc3cnc(NC4CCC4)nc3n2[C@H]2CC[C@@H](C(N)=O)CC2)c(Cl)c1` [Example 392, (1s,4s)-4-(2-(cyclobutylamino)-8-(2,6-dichloro-4-cyanophenylamino)-9H-purin-9-yl)cyclohexanecarboxamide], the IC50 falls from over 1 µM to under 0.25 µM. The second is the more potent here.

First: N#Cc1cc(F)c(Nc2nc3cnc(NC4CCC4)nc3n2[C@H]2CC[C@@H](C(N)=O)CC2)c(Cl)c1 [Example 393, (1s,4s)-4-(8-(2-chloro-4-cyano-6-fluorophenylamino)-2-(cyclobutylamino)-9H-purin-9-yl)cyclohexanecarboxamide]
Second: C[C@@H](CO)Nc1ncc2nc(Nc3c(F)cc(C#N)cc3Cl)n([C@H]3CC[C@@H](C(N)=O)CC3)c2n1 [Example 395, (1R,4s)-4-(8-(2-chloro-4-cyano-6-fluorophenylamino)-2-((S)-1-hydroxypropan-2-ylamino)-9H-purin-9-yl)cyclohexanecarboxamide]
The IC50 of the first is lower: 0.25 to 0.5 µM for the first, over 1 µM for the second.

Compound `C[C@@H](CO)Nc1ncc2nc(Nc3c(F)cc(C#N)cc3F)n([C@H]3CC[C@@H](C(N)=O)CC3)c2n1` [Example 394, (1R,4s)-4-(8-(4-cyano-2,6-difluorophenylamino)-2-((S)-1-hydroxypropan-2-ylamino)-9H-purin-9-yl)cyclohexanecarboxamide] has an IC50 of over 1 µM.
